Source: patent US20240300943A1, “NOVEL SALTS OF HETEROCYCLIC COMPOUND AS PROTEIN KINASE INHIBITOR AND USES THEREOF” (HK INNO.N CORPORATION, priority 2021, published 2024)

Assays:
Type in all cases: physicochemical
[1] = Measurement of water solubility; settings: saturated solution shaken at room temperature for 24 hours
Protocol: A liquid phase was taken out of the solution and filtered using a 0.22 μm PVDF filter. The filtered liquid phase was diluted 10-fold for LC analysis.
LC analysis was performed by the following method.

[2] = Physical stability evaluation under stress conditions
Protocol: In order to evaluate physical stability, samples were packaged in the form of ((LPDE+N2)+silica gel 1 g+LDPE)+Al-Bag, and stored under stress conditions (60° C.±2° C./80% RH±5%) for 2/4 weeks before evaluation.
In table 2, initial is a result measured after preparation of salts, and S2W and S4W are results measured after two and four weeks while being exposed to stress conditions, respectively.

[3] = Photostability evaluation
Text: Samples were packaged in LPDE bag, and stored under visible (1.2M Lux-h), UV (200 W-h/m2) and UV+visible conditions, respectively, and then evaluated.

[4] = Hygroscopicity evaluation; settings: for Individual related material: in %
Text: Samples were placed in a glass desiccator in which relative humidity was adjusted to 33%, 53%, 75%, and 93%, and then stored for two and four weeks to be evaluated.

For `C[C@@H]1CN(C(=O)CC#N)CC=C1c1cc(NC(=O)C2CC2)nc2[nH]ccc12` [Example 2, (S)—N-(4-(1-(2-cyanoacetyl)-3-methyl-1,2,3,6-tetrahydropyridin-4-yl)-1H-pyrrolo[2,3-b]pyridin-6-yl)cyclopropanecarboxamide], the Water solubility [1] was 5900 µg/mL, the C.I quantitative ([2]; Initial) was 18.1% and the “Content (anhydride, as anhydride)” value ([2]; Initial) was 100.7%. For the same molecule, the Moisture ([2]; Initial) was 3.93%, the “Purity: Individual related material” value ([2]; Initial) was 0.12% and the “Purity: Total related material” value ([2]; Initial) was 0.56%. For the same molecule, the C.I quantitative ([2]; S2W: 2 weeks at 60° C./80% RH) was 17.8%, the “Content (anhydride, as anhydride)” value ([2]; S2W: 2 weeks at 60° C./80% RH) was 101.4% and the Moisture ([2]; S2W: 2 weeks at 60° C./80% RH) was 3.93%. For the same molecule, the “Purity: Individual related material” value ([2]; S2W: 2 weeks at 60° C./80% RH) was 0.11%, the “Purity: Total related material” value ([2]; S2W: 2 weeks at 60° C./80% RH) was 0.63% and the C.I quantitative ([2]; S4W: 4 weeks at 60° C./80% RH) was 17.8%. For the same molecule, the “Content (anhydride, as anhydride)” value ([2]; S4W: 4 weeks at 60° C./80% RH) was 99.2%, the Moisture ([2]; S4W: 4 weeks at 60° C./80% RH) was 3.79% and the “Purity: Individual related material” value ([2]; S4W: 4 weeks at 60° C./80% RH) was 0.14%. For the same molecule, the “Purity: Total related material” value ([2]; S4W: 4 weeks at 60° C./80% RH) was 0.58%, the Individual related material ([3]; Initial) was 0.12% and the Total related material ([3]; Initial) was 0.56%. It also gave an Individual related material ([3]; Solid, Control) of 0.11%, a Total related material ([3]; Solid, Control) of 0.44% and an Individual related material ([3]; Solid, UV (200 W-h/m2)) of 0.11%. The Total related material ([3]; Solid, UV (200 W-h/m2)) was 0.6%, the Individual related material ([3]; Solid, UV + Vis) was 0.12% and the Total related material ([3]; Solid, UV + Vis) was 0.91%. The Individual related material ([3]; Solid, UV + Vis Control) was 0.12%, the Total related material ([3]; Solid, UV + Vis Control) was 0.48% and the Individual related material ([3]; Solid, Vis (1.2M Lux-h)) was 0.11%. The Total related material ([3]; Solid, Vis (1.2M Lux-h)) was 0.69%, the Total related material ([4]; Initial) was 0.56% and the Water ([4]; Initial) was 3.93%. For the same molecule, the Individual related material ([4]; Initial) was 0.12, the Total related material ([4]; relative humidity 33%, 2 W) was 0.53% and the Water ([4]; relative humidity 33%, 2 W) was 3.70%. The Individual related material ([4]; relative humidity 33%, 2 W) was 0.11, the Total related material ([4]; relative humidity 33%, 4 W) was 0.55% and the Water ([4]; relative humidity 33%, 4 W) was 3.94%. For the same molecule, the Individual related material ([4]; relative humidity 33%, 4 W) was 0.10, the Total related material ([4]; relative humidity 53%, 2 W) was 0.66% and the Water ([4]; relative humidity 53%, 2 W) was 3.62%. For the same molecule, the Individual related material ([4]; relative humidity 53%, 2 W) was 0.12, the Total related material ([4]; relative humidity 53%, 4 W) was 0.59% and the Water ([4]; relative humidity 53%, 4 W) was 3.96%. The Individual related material ([4]; relative humidity 53%, 4 W) was 0.11, the Total related material ([4]; relative humidity 75%, 2 W) was 0.58% and the Water ([4]; relative humidity 75%, 2 W) was 3.78%. For the same molecule, the Individual related material ([4]; relative humidity 75%, 2 W) was 0.11, the Total related material ([4]; relative humidity 75%, 4 W) was 0.61% and the Water ([4]; relative humidity 75%, 4 W) was 3.93%. It also gave an Individual related material ([4]; relative humidity 75%, 4 W) of 0.11, a Total related material ([4]; relative humidity 93%, 2 W) of 0.54% and a Water ([4]; relative humidity 93%, 2 W) of 3.71%. For the same molecule, the Individual related material ([4]; relative humidity 93%, 2 W) was 0.11, the Total related material ([4]; relative humidity 93%, 4 W) was 0.62% and the Water ([4]; relative humidity 93%, 4 W) was 3.94%. The Individual related material ([4]; relative humidity 93%, 4 W) was 0.10.
For `C[C@@H]1CN(C(=O)CC#N)CC=C1c1cc(NC(=O)C2CC2)nc2[nH]ccc12` [Example 6, (S)—N-(4-(1-(2-cyanoacetyl)-3-methyl-1,2,3,6-tetrahydropyridin-4-yl)-1H-pyrrolo[2,3-b]pyridin-6-yl)cyclopropanecarboxamide], the Water solubility [1] was 900 µg/mL.
Work on `C[C@@H]1CN(C(=O)CC#N)CC=C1c1cc(NC(=O)C2CC2)nc2[nH]ccc12` [Example 5, (S)—N-(4-(1-(2-cyanoacetyl)-3-methyl-1,2,3,6-tetrahydropyridin-4-yl)-1H-pyrrolo[2,3-b]pyridin-6-yl)cyclopropanecarboxamide] yielded a Water solubility [1] of 4600 µg/mL, an Individual related material ([3]; Initial) of 0.14% and a Total related material ([3]; Initial) of 0.64%. The Individual related material ([3]; Solid, Control) was 0.65%, the Total related material ([3]; Solid, Control) was 0.65% and the Individual related material ([3]; Solid, UV (200 W-h/m2)) was 1%. The Total related material ([3]; Solid, UV (200 W-h/m2)) was 1%, the Individual related material ([3]; Solid, UV + Vis) was 1.96% and the Total related material ([3]; Solid, UV + Vis) was 1.96%. It also gave an Individual related material ([3]; Solid, UV + Vis Control) of 0.78%, a Total related material ([3]; Solid, UV + Vis Control) of 0.78% and an Individual related material ([3]; Solid, Vis (1.2M Lux-h)) of 1.72%. It also gave a Total related material ([3]; Solid, Vis (1.2M Lux-h)) of 1.72%.
